# Assay results as given in patent US10927117B2 (BEIGENE SWITZERLAND GMBH, priority 2016, dated 2021).
# Columns and labels:
# [1] = Metabolism in human liver microsomes (responsible CYP isoform)
# TMD-8 DLBCL xenografts = assay: Efficacy study in TMD-8 xenograft model; assay type: in vivo, NOD/SCID mice
# Description: Animals were pre-treated with cyclophosphamide (prepared in saline, 150 mg/kg i.p.) and disulfiram (prepared in 0.8% Tween 80 in saline, 125 mg/kg p.o., one hour after each dose of cyclophosphamide) once daily for two days Animals were then inoculated with TMD-8 cells 24 hours after the second dose of cyclophosphamide. On the day of implantation, cell culture medium was replaced with fresh medium. Four hours later, media was removed and cells were collected as described above. Cells were re-suspended in cold (4° C.) PBS and same volume of matrigel (BD, Cat #356237) was added to give a final concentration of 2.5×10^7 cells/ml. Resuspended cells were placed on ice prior to inoculation The right axilla region of each mouse was cleaned with 75% ethanol prior to cell inoculation. Each animal was injected subcutaneously with 5×10^6 cells in 200 μl of cell suspension in the right front flank via a 26-gauge needle.
# For in vivo efficacy studies, starting from day 3 after cell inoculation, animals were randomly assigned into desired number of groups with 10 mice per group. […] Treatments were administered by oral gavage (p.o.) in a volume of 10 ml/kg body weight. Body weight was assessed immediately before dosing and volume dosed was adjusted accordingly. Tumor volume was measured twice weekly in two dimensions using a calliper (measureable from day 11 post inoculation in this study). Tumor volume was calculated using the formula: V=0.5×(a×b^2) where a and b are the long and short diameters of the tumor, respectively. Statistical analysis was conducted using the student T-test. P<0.05 was considered statistically significant. One individual was responsible for tumor measurement for the entire duration of the study. Body weights were also recorded twice weekly. Mice were also being monitored daily for clinical signs of toxicity for the duration of the study.
# [2] = Pharmacokinetics in dogs (LC-MS/MS); assay type: in vivo, beagle dogs
# [3] = tested on: JEKO-1 cells (MCL cell line); assay: Tumor cell proliferation, CellTiter-Glo, JEKO-1; assay type: cell-based; details: Homo sapiens, 144 h, JEKO-1 cell line, 6-day exposure, read-out: Potency IC50
# Description: 3 MCL cell lines (Rec-1, Mino and JEKO-1) and an ABC type diffuse large B-cell lymphoma cell line (TMD8) were used in this study. Cell lines were maintained in RPMI-1640 supplemented with 10% fetal bovine serum/FBS (Thermo Scientific); 100 units/ml penicillin (Gibco) and 0.1 mg/ml streptomycin (Gibco) and kept at 37° C. in a humidified atmosphere of 5% CO2 in air. Cell lines were reinstated from frozen stocks that were laid down within 30 passages from the original cells purchased.
# The growth-inhibitory activity of compounds in Rec-1, Mino, JEKO-1 and TMD-8 cells was determined using CellTiter-Glo luminescent cell viability assay (Promega). The number of cells seeded per well of a 96-well plate was optimized for each cell line to ensure logarithmic growth over 6 days treatment period. Cells were treated in triplicate with a 10-point dilution series. […] Mixture was mixed on an orbital shaker for 2 minutes to allow cell lysis, followed by 10 minutes incubation at room temperature to allow development and stabilization of luminescent signal, which corresponded to quantity of ATP and thus the quantity of metabolically active cells. Luminescent signal was measured using PHERAstar FS reader (BMG Labtech). IC50 values for cell viability were determined with GraphPad Prism software and were the mean of 3 independent assays.
# Hygroscopic test (DVS) = assay type: physicochemical; details: 80% RH, 25° C.
# Description: The dynamic vapor sorption (DVS) plots shown as in FIG. 6 was collected a SMS (Surface Measurement Systems) DVS Intrinsic. The DVS parameters used includes: temperature (25° C.); dm/dt (0.002%/min); Min. dm/dt stability duration (10 min); Max. equilibrium time (180 min); RH range (0% RH to 95% RH); RH step size(10% RH from 0% RH to 90% RH, 5% RH from 90% RH to 95% RH).
# [4] = tested on: systemic REC-1 MCL engrafts; assay: Efficacy study in systemic REC-1 xenograft model; assay type: in vivo, NOD/SCID mice; details: different dose levels BID p.o., 71 days
# Description: Animals were pre-treated with cyclophosphamide (prepared in saline, 150 mpk i.p.) and disulfiram (prepared in 0.8% TW-80 in saline, 125 mpk p.o., one hour after each dose of cyclophosphamide) once daily for two days. Animals were then inoculated with REC-1 cells 24 hours after the second dose of cyclophosphamide. On the day of implantation, cell culture medium was replaced with fresh medium. Four hours later, media was removed and cells were collected as described above. Cells were re-suspended in cold (4° C.) PBS to give a final concentration of 1×10^8 cells/ml. Resuspended cells were placed on ice prior to implantation. Each animal was injected intravenously via tail vein with 1×10^7 cells in […] of cell suspension.
# For in vivo efficacy studies, starting from day 8 after cell inoculation, animals were randomly assigned into desired number of groups with 10 mice per group. […] Body weight was assessed immediately before dosing and volume dosed was adjusted accordingly. Body weight was recorded twice weekly (changed to three times per week from day 33). […] In the case of severe toxic effect, such as loss of movement, mice were euthanized and scored as death.
# For Data Analysis: Survival analysis was performed by Kaplan-Meier method. […] For each group, median survival time (MST), range of survival time (RST) with 95% confidence interval and increase in life-span (ILS) were calculated. […]
Structure (SMILES),major CYP isoform responsible for the metabolism [1],impact on animal body weight (TMD-8 DLBCL xenografts; all treatment groups),"anti-tumor effects (TMD-8 DLBCL xenografts; different dose levels BID p.o., 39 days)","anti-tumor activity at lowest dose tested (TMD-8 DLBCL xenografts; lowest dose tested, BID p.o.)",accumulation following multiple oral dosing [2],bioavailability (F %) [2],clearance (CL) [2],linearity of PK over the dose range [2],IC50 [3] [nM],increase of mass (DVS) (Hygroscopic test (DVS)),anti-tumor activity (overall survival) [4]
"C=CC(=O)N1CCC([C@@H]2CCNc3c(C(N)=O)c(-c4ccc(Oc5ccccc5)cc4)nn32)CC1 [Compound 1, (S)-7-(1-acryloylpiperidin-4-yl)-2-(4-phenoxyphenyl)-4,5,6,7-tetra-hydropyrazolo[1,5-a]pyrimidine-3-carboxamide]",CYP3A,,,,,,,,,,
"C=CC(=O)N1CCC([C@@H]2CCNc3c(C(N)=O)c(-c4ccc(Oc5ccccc5)cc4)nn32)CC1 [Crystalline Form A, (S)-7-(1-acryloylpiperidin-4-yl)-2-(4-phenoxyphenyl)-4,5,6,7-tetra-hydropyrazolo[1,5-a]pyrimidine-3-carboxamide]",,no significant impact on animal body weight,dose-dependent anti-tumor effects,strong anti-tumor activity,no accumulation,reasonably good bioavailability,moderate clearance,linear PK over the dose range,20,about 0.8%,dose-dependent anti-tumor activity
